Where a name gives a salt, the structure may show the parent alone.
test: in vitro; conditions: rat, gh3-tre-luc cells, AC50 (uM) modified / 1000

| Structure (SMILES) | CC50 at 24 h [µM] |
| --- | --- |
| CC1=C(/C=C/C(C)=C/C=C/C(C)=C/C=C/C=C(C)/C=C/C=C(C)/C=C/C2=C(C)C(=O)CCC2(C)C)C(C)(C)CCC1=O [Canthaxanthin] | > 50 |
| CO/N=C(\C(=O)N[C@@H]1C(=O)N2C(C(=O)O)=C(COC(N)=O)CS[C@H]12)c1ccco1 [Cefuroxime] | > 90 |
| C=CCOC(=O)CCCCCCCC [Allyl nonanoate] | > 90 |
| CCCCCCC1CCCC(=O)O1 (stereo not drawn) [Undecanoic delta-lactone] | > 90 |
| CC(C)C/C=C(/C=O)c1ccccc1 [5-Methyl-2-phenyl-2-hexenal] | 64.6 |
| S=C(NC1CCCCC1)NC1CCCCC1 [N,N'-Dicyclohexylthiourea] | > 90 |
| CCOS(=O)(=O)OCC [Diethyl sulfate] | > 90 |
| CN/C(=N\c1ccc(C2=NNC(=O)CC2C)cc1)NC#N (stereo not drawn) [Siguazodan] | > 50 |
| CCCC(=O)OC(C)(C)Cc1ccccc1 [1,1-Dimethyl-2-phenylethyl butanoate] | > 90 |
| O=C(NCCN1CCOCC1)c1ccc(Cl)cc1 [Moclobemide] | > 50 |
| C=CCS(=O)(=O)O [2-Propene-1-sulfonic acid, sodium salt] | > 90 |
| Cn1c(=O)cc(Oc2ccc(F)cc2F)c2cnc(NCC(C)(C)O)nc21 [PharmaGSID_48507] | > 90 |
| COc1ccc(C(O)(c2cncnc2)C2CC2)cc1 (stereo not drawn) [Ancymidol] | > 90 |
| Cc1cccc(N)c1C [2,3-Dimethylaniline] | > 90 |
| Oc1c(Cl)ccc(Cl)c1Cl [2,3,6-Trichlorophenol] | > 90 |
| CN1C(CCl)Nc2cc(Cl)c(S(N)(=O)=O)cc2S1(=O)=O (stereo not drawn) [Methyclothiazide] | > 50 |
| Oc1ccc(Cl)cc1Cl [2,4-Dichlorophenol] | > 90 |
| C=CC(=O)N1CCOCC1 [1-(Morpholin-4-yl)prop-2-en-1-one] | > 90 |
| CNCC[C@@H](Oc1ccccc1C)c1ccccc1 [Atomoxetine hydrochloride] | 44.9 |
| c1ccc(P(c2ccccc2)c2ccccc2)cc1 [Triphenylphosphine] | > 90 |
| CC(C)(O)c1coc(S(=O)(=O)NC(=O)Nc2c3c(cc4c2CCC4)CCC3)c1 [CP-456773] | > 90 |

| Structure (SMILES) | CC50 at 24 h [µM] |
| --- | --- |
| O=[N+]([O-])c1cc(Cl)c(Cl)c(Cl)c1Cl [2,3,4,5-Tetrachloronitrobenzene] | 89.5 |
| O=C(CCCN1CCN2CCCC2C1)c1ccc(F)cc1 (stereo not drawn) [Azabuperone] | > 50 |
| CCCCC(CC)COC(=O)/C=C\C(=O)OCC(CC)CCCC (stereo not drawn) [Bis(2-ethylhexyl) maleate] | > 90 |
| C1CCCCCCCCCCC1 [Cyclododecane] | > 20 |
| FC(F)(F)COCC(F)(F)F [Flurothyl] | > 50 |
| O=C(O)c1cc(/N=N/c2ccc(O)c(C(=O)O)c2)ccc1O [Olsalazine sodium] | > 50 |
| CCCC(Cn1cncn1)c1ccc(Cl)cc1Cl (stereo not drawn) [Penconazole] | 78.4 |
| Cc1c(F)c(F)c(COC(=O)[C@H]2[C@@H](/C=C(\Cl)C(F)(F)F)C2(C)C)c(F)c1F (racemic) [Tefluthrin] | > 90 |
| COc1cc(S(=O)(=O)O)c(C)cc1N=Nc1c(O)ccc2cc(S(=O)(=O)O)ccc12 [Allura Red C.I.16035] | 37.7 |
| CC[N+](C)(C)c1cccc(O)c1 [Edrophonium chloride] | > 20 |
| CC12CCC(C1)C(C)(C)C2=O (stereo not drawn) [alpha-Fenchone] | > 50 |
| CCN(CC)CCNc1ccc(CO)c2sc3ccccc3c(=O)c12 [Hycanthone] | 2.88 |
| c1ccc(CN(CC2=NCCN2)c2ccccc2)cc1 [Antazoline hydrochloride] | 21.1 |
| CN1CCN(C2=Nc3cc(Cl)ccc3Nc3ccccc32)CC1 [Clozapine] | 15.9 |
| COC(=O)c1cccc(C(=O)OC)c1 [Dimethyl isophthalate] | > 90 |
| CC1(C)CON(Cc2ccccc2Cl)C1=O [Clomazone] | > 90 |
| C=CC(=O)OCCCl [2-Chloroethyl acrylate] | > 90 |
| Cc1ccccc1-n1c(C)nc2ccccc2c1=O [Methaqualone] | > 50 |
| Clc1ccc2cc3ccccc3cc2c1 [2-Chloroanthracene] | > 90 |
| CC(CC(=O)O)CC(C)(C)C (stereo not drawn) [3,5,5-Trimethylhexanoic acid] | > 90 |
| COC(=O)CCCCC(=O)OC [Dimethyl adipate] | > 90 |

Source: paper PMC6792352, “Limited Chemical Structural Diversity Found to Modulate Thyroid Hormone Receptor in the Tox21 Chemical Library” (Environmental Health Perspectives, 2019)
